In patent US12077503B2, “Substituted cyclic amides and their use as herbicides” (FMC CORPORATION, priority 2015, dated 2024):

What was measured:
Assay type in all cases: in vivo
[1] = system: barnyardgrass (Echinochloa crus-galli); assay: Test G Pre-Emergence Protocol; details: Echinochloa crus-galli, pre-emergence, 312 h, evaluated after 13 days; for pest or weed control at 15.625 g/ha: 15.625 g ai/ha, read-out: Barnyard grass damage rating (100=total damage to plant; 0=no damage to plant); for pest or weed control at 62.5 g/ha: 62.5 g ai/ha, 100=total damage to plant, 0=no damage to plant, read-out: plant damage rating, Barnyardgrass; for pest or weed control at 250 g/ha: 250 g ai/ha, read-out: Barnyardgrass damage rating (100=total damage to plant; 0=no damage to plant)
How it was run: (§1)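 Visual injury (0–100) at day 13 after a single pre-emergence spray. Rates: 15.625, 62.5, 250 g/ha in acetone–water 50:50 with 0.5% Tween 20. Growth conditions: 24/16° C, 14 h light, 65% humidity.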

[2] = system: corn (Zea mays); assay: Test G Pre-Emergence Protocol; details: Zea mays, pre-emergence, 312 h, evaluated after 13 days; for plant injury at 15.625 g/ha: 15.625 g ai/ha; for plant injury at 15.625 g/ha / plant injury at 250 g/ha: read-out: Corn damage rating (100=total damage to plant; 0=no damage to plant); for plant injury at 62.5 g/ha: 62.5 g ai/ha, 100=total damage to plant, 0=no damage to plant, read-out: plant damage rating, Corn; for plant injury at 250 g/ha: 250 g ai/ha
How it was run: as §1

[3] = system: giant foxtail (Setaria faberi); assay: Test G Pre-Emergence Protocol; details: Setaria faberi, pre-emergence, 312 h, evaluated after 13 days; for pest or weed control at 15.625 g/ha: 15.625 g ai/ha; for pest or weed control at 15.625 g/ha / pest or weed control at 250 g/ha: read-out: Foxtail, Giant damage rating (100=total damage to plant; 0=no damage to plant); for pest or weed control at 62.5 g/ha: 62.5 g ai/ha, 100=total damage to plant, 0=no damage to plant, read-out: plant damage rating, Foxtail, Giant; for pest or weed control at 250 g/ha: 250 g ai/ha
How it was run: as §1

[4] = system: ivy-leaved morning glory (Ipomoea hederacea); assay: Test G Pre-Emergence Protocol; details: Ipomoea, pre-emergence, 312 h, evaluated after 13 days; for pest or weed control at 62.5 g/ha: 62.5 g ai/ha, 100=total damage to plant, 0=no damage to plant, read-out: plant damage rating, Morningglory, Ivy-leaved; for pest or weed control at 250 g/ha: 250 g ai/ha, read-out: Morningglory, Ivy-leaved damage rating (100=total damage to plant; 0=no damage to plant)
How it was run: as §1

[5] = system: redroot pigweed (Amaranthus retroflexus); assay: Test G Pre-Emergence Protocol; details: Amaranthus retroflexus, pre-emergence, 312 h, evaluated after 13 days; for pest or weed control at 15.625 g/ha: 15.625 g ai/ha; for pest or weed control at 15.625 g/ha / pest or weed control at 250 g/ha: read-out: Pigweed, Redroot damage rating (100=total damage to plant; 0=no damage to plant); for pest or weed control at 62.5 g/ha: 62.5 g ai/ha, 100=total damage to plant, 0=no damage to plant, read-out: plant damage rating, Pigweed, Redroot; for pest or weed control at 250 g/ha: 250 g ai/ha
How it was run: as §1

[6] = system: velvetleaf (Abutilon theophrasti); assay: Test G Pre-Emergence Protocol; details: Abutilon theophrasti, pre-emergence, 312 h, evaluated after 13 days; for pest or weed control at 15.625 g/ha: 15.625 g ai/ha; for pest or weed control at 15.625 g/ha / pest or weed control at 250 g/ha: read-out: Velvetleaf damage rating (100=total damage to plant; 0=no damage to plant); for pest or weed control at 62.5 g/ha: 62.5 g ai/ha, 100=total damage to plant, 0=no damage to plant, read-out: plant damage rating, Velvetleaf; for pest or weed control at 250 g/ha: 250 g ai/ha
How it was run: as §1

[7] = system: barnyardgrass (Echinochloa crus-galli); assay: Test G Post-Emergence Protocol; details: Echinochloa crus-galli, post-emergence, 312 h; for pest or weed control at 15.625 g/ha: 15.625 g ai/ha, evaluated after 13 days (100=total damage to plant; 0=no damage to plant), read-out: Barnyardgrass damage rating; for pest or weed control at 62.5 g/ha: 62.5 g ai/ha, read-out: Barnyardgrass damage rating (100=total damage to plant; 0=no damage to plant); for pest or weed control at 62.5 g/ha / pest or weed control at 250 g/ha: evaluated after 13 days; for pest or weed control at 250 g/ha: 250 g ai/ha, read-out: damage to plant, Barnyardgrass (100=total damage to plant; 0=no damage to plant)
How it was run: (§2)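 Damage was rated 13 days after treatment from 0 (none) to 100 (plant killed). Compound was applied as a spray at 15.625, 62.5 or 250 g/ha in 50:50 acetone/water containing 0.5% Tween 20, onto 8-day-old potted plants kept in a glasshouse (24/16 °C, 14 h light, 65% humidity).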

[8] = system: corn (Zea mays); assay: Test G Post-Emergence Protocol; details: Zea mays, post-emergence, 312 h; for plant injury at 15.625 g/ha: 15.625 g ai/ha, evaluated after 13 days (100=total damage to plant; 0=no damage to plant), read-out: Corn damage rating; for plant injury at 62.5 g/ha: 62.5 g ai/ha, read-out: Corn damage rating (100=total damage to plant; 0=no damage to plant); for plant injury at 62.5 g/ha / plant injury at 250 g/ha: evaluated after 13 days; for plant injury at 250 g/ha: 250 g ai/ha, read-out: damage to plant, Corn (100=total damage to plant; 0=no damage to plant)
How it was run: as §2

[9] = system: giant foxtail (Setaria faberi); assay: Test G Post-Emergence Protocol; details: Setaria faberi, post-emergence, 312 h; for pest or weed control at 15.625 g/ha: 15.625 g ai/ha, evaluated after 13 days (100=total damage to plant; 0=no damage to plant), read-out: Foxtail, Giant damage rating; for pest or weed control at 62.5 g/ha: 62.5 g ai/ha, read-out: Foxtail, Giant damage rating (100=total damage to plant; 0=no damage to plant); for pest or weed control at 62.5 g/ha / pest or weed control at 250 g/ha: evaluated after 13 days; for pest or weed control at 250 g/ha: 250 g ai/ha, read-out: damage to plant, Foxtail, Giant (100=total damage to plant; 0=no damage to plant)
How it was run: as §2

[10] = system: ivy-leaved morning glory (Ipomoea hederacea); assay: Test G Post-Emergence Protocol; details: Ipomoea, post-emergence, 312 h; for pest or weed control at 15.625 g/ha: 15.625 g ai/ha, evaluated after 13 days (100=total damage to plant; 0=no damage to plant), read-out: Morningglory, Ivy-leaved damage rating; for pest or weed control at 62.5 g/ha: 62.5 g ai/ha, read-out: Morningglory, Ivy-leaved damage rating (100=total damage to plant; 0=no damage to plant); for pest or weed control at 62.5 g/ha / pest or weed control at 250 g/ha: evaluated after 13 days; for pest or weed control at 250 g/ha: 250 g ai/ha, read-out: damage to plant, Morningglory, Ivy-leaved (100=total damage to plant; 0=no damage to plant)
How it was run: as §2

[11] = system: redroot pigweed (Amaranthus retroflexus); assay: Test G Post-Emergence Protocol; details: Amaranthus retroflexus, post-emergence, 312 h; for pest or weed control at 15.625 g/ha: 15.625 g ai/ha, evaluated after 13 days (100=total damage to plant; 0=no damage to plant), read-out: Pigweed, Redroot damage rating; for pest or weed control at 62.5 g/ha: 62.5 g ai/ha, read-out: Pigweed, Redroot damage rating (100=total damage to plant; 0=no damage to plant); for pest or weed control at 62.5 g/ha / pest or weed control at 250 g/ha: evaluated after 13 days; for pest or weed control at 250 g/ha: 250 g ai/ha, read-out: damage to plant, Pigweed, Redroot (100=total damage to plant; 0=no damage to plant)
How it was run: as §2

[12] = system: velvetleaf (Abutilon theophrasti); assay: Test G Post-Emergence Protocol; details: Abutilon theophrasti, post-emergence, 312 h; for pest or weed control at 15.625 g/ha: 15.625 g ai/ha, evaluated after 13 days (100=total damage to plant; 0=no damage to plant), read-out: Velvetleaf damage rating; for pest or weed control at 62.5 g/ha: 62.5 g ai/ha, read-out: Velvetleaf damage rating (100=total damage to plant; 0=no damage to plant); for pest or weed control at 62.5 g/ha / pest or weed control at 250 g/ha: evaluated after 13 days; for pest or weed control at 250 g/ha: 250 g ai/ha, read-out: damage to plant, Velvetleaf (100=total damage to plant; 0=no damage to plant)
How it was run: as §2

CN1C[C@@H](c2ccc(C(F)(F)F)cc2)[C@H](C(=O)Nc2cc(C(C)(C)C)[nH]n2)C1=O (racemic) [Compound 1545]
0%: pest or weed control at 15.625 g/ha [1] | pest or weed control at 62.5 g/ha [1] | pest or weed control at 250 g/ha [1] | plant injury at 15.625 g/ha [2] | plant injury at 62.5 g/ha [2] | plant injury at 250 g/ha [2] | pest or weed control at 15.625 g/ha [3] | pest or weed control at 62.5 g/ha [3] | pest or weed control at 250 g/ha [3] | pest or weed control at 62.5 g/ha [4] | pest or weed control at 250 g/ha [4] | pest or weed control at 15.625 g/ha [5] | pest or weed control at 62.5 g/ha [5] | pest or weed control at 250 g/ha [5] | pest or weed control at 15.625 g/ha [6] | pest or weed control at 62.5 g/ha [6] | pest or weed control at 250 g/ha [6] | pest or weed control at 15.625 g/ha [7] | pest or weed control at 62.5 g/ha [7] | pest or weed control at 250 g/ha [7] | plant injury at 15.625 g/ha [8] | plant injury at 62.5 g/ha [8] | plant injury at 250 g/ha [8] | pest or weed control at 15.625 g/ha [9] | pest or weed control at 62.5 g/ha [9] | pest or weed control at 250 g/ha [9] | pest or weed control at 15.625 g/ha [10] | pest or weed control at 62.5 g/ha [10] | pest or weed control at 250 g/ha [10] | pest or weed control at 15.625 g/ha [11] | pest or weed control at 62.5 g/ha [11] | pest or weed control at 250 g/ha [11] | pest or weed control at 15.625 g/ha [12] | pest or weed control at 62.5 g/ha [12] | pest or weed control at 250 g/ha [12]

CN1C[C@@H](c2ccc(C(F)(F)F)cc2)[C@H](C(=O)Nc2nccc(C(F)(F)F)n2)C1=O (racemic) [Compound 1547]
0%: pest or weed control at 15.625 g/ha [1] | pest or weed control at 62.5 g/ha [1] | pest or weed control at 250 g/ha [1] | plant injury at 15.625 g/ha [2] | plant injury at 62.5 g/ha [2] | plant injury at 250 g/ha [2] | pest or weed control at 15.625 g/ha [3] | pest or weed control at 62.5 g/ha [3] | pest or weed control at 250 g/ha [3] | pest or weed control at 15.625 g/ha ([4]; 15.625 g ai/ha, read-out: Morning-glory, Ivy-leaved damage rating (100=total damage to plant; 0=no damage to plant)) | pest or weed control at 62.5 g/ha [4] | pest or weed control at 250 g/ha [4] | pest or weed control at 15.625 g/ha [5] | pest or weed control at 62.5 g/ha [5] | pest or weed control at 250 g/ha [5] | pest or weed control at 15.625 g/ha [6] | pest or weed control at 62.5 g/ha [6] | pest or weed control at 250 g/ha [6] | pest or weed control at 15.625 g/ha [7] | pest or weed control at 62.5 g/ha [7] | pest or weed control at 250 g/ha [7] | plant injury at 15.625 g/ha [8] | plant injury at 62.5 g/ha [8] | plant injury at 250 g/ha [8] | pest or weed control at 15.625 g/ha [9] | pest or weed control at 62.5 g/ha [9] | pest or weed control at 250 g/ha [9] | pest or weed control at 15.625 g/ha [10] | pest or weed control at 62.5 g/ha [10] | pest or weed control at 250 g/ha [10] | pest or weed control at 15.625 g/ha [11] | pest or weed control at 62.5 g/ha [11] | pest or weed control at 250 g/ha [11] | pest or weed control at 15.625 g/ha [12] | pest or weed control at 62.5 g/ha [12] | pest or weed control at 250 g/ha [12]
